Patent US6713266B1 (Isodiagnostika Inc., priority 1998, dated 2004)
Where “and” joins values, the source holds several entries; their conditions need not be identical. Identical values can stand only once.

Columns and labels:
MoAb CSA-2G9 = experiment: Inhibition ELISA to the CSA-DVS-HSA conjugate, MoAb; type: binding, mouse
Description: (§1) Inhibition ELISA Protocol:
(§2) 1. Use Falcon Pro-bind immunoplates.
(§3) 2. Dilute coating antigen to 1 μg/mL in carbonate-bicarbonate buffer. Add 100 μL per well and incubate overnight at 4° C.
(§4) 3. On the same day prepare inhibiting antigen tubes. Aliquot antibodies into glass test tubes. Prepare appropriate antigen concentration in ethanol and add to aliquoted antibody at 10 μL ethanol solution/250 μL antibody. Vortex tubes and incubate overnight at 4° C.
(§5) 4. Shake out wells and wash 3× with 200 μL PBS/0.05% TWEEN™ (polyoxyethylene-sorbitol) (v/v) per well.
(§6) 5. Add 200 μL blocking buffer per well (PBS/2% BSA (w/v)). Incubate 60 min at room temperature.
(§7) 7. Transfer contents of inhibition tubes to antigen-coated plate, 100 μL per well. Incubate 60 min at 37° C.
(§8) 9. Dilute alkaline phosphatase conjugated anti-mouse IgG (Pierce cat#31322) in PBS/0.1% TWEEN™ (polyoxyethylene-sorbitol) (v/v) to 1:5000 concentration. Add 100 μL per well and incubate at 37° C. for 60 min.
(§9) 11. […] Add 100 μL per well and incubate in the dark at room temperature. Absorbance can be read at 405 nm at approximately 15-min intervals.

MoAb CSA-1H6 = experiment: as above; type: binding, mouse
Description: as §1, §2, §3, §4, §5, §6, §7, §8, §9

MoAb AM1-2E10 = experiment: as above; type: binding, mouse
Description: as §1, §2, §3, §4, §5, §6, §7
(§10) 9. […] Add 100 μL per well and incubate at 37° C. for 60 min.
as §9

MoAb AM1-7F5 = experiment: as above; type: binding, mouse
Description: as §1, §2, §3, §4, §5, §6, §7, §10, §9

[1] = system: Mouse polyclonal sera (AM9-9-DVS-KLH immunogen); experiment: Inhibition ELISA, AM19-9-DVS-HSA coated plate, mouse polyclonal sera; type: binding
Description: as §1, §2, §3, §4, §5, §6, §7, §10, §9

[2] = system: Mouse polyclonal sera (AM19-1-DVS (1) - KLH immunogen); experiment: Inhibition ELISA, AM19-1-DVS (1) HSA coated plate, mouse polyclonal sera; type: binding
Description: as §1, §2, §3, §4, §5, §6, §7, §10, §9

[3] = system: Mouse polyclonal sera (AM19-9-DVS-KLH immunogen); experiment: Inhibition ELISA, AM19-9-DVS-HSA coated plates, mouse polyclonal sera; type: binding
Description: as §1, §2, §3, §4, §5, §6, §7, §10, §9

[4] = system: Mouse polyclonal sera (CSA-DVS-KLH immunogen); experiment: Inhibition ELISA, CSA-DVS-HSA coated plate, mouse polyclonal sera; type: binding; details: Mouse sera; Table 3; inhibition ELISA to the CSA-DVS-HSA conjugate
Description: as §1, §2, §3, §4, §5, §6, §7, §10, §9

[5] = system: Mouse polyclonal sera (AM1-DVS-KLH immunogen); experiment: Inhibition ELISA to the CSA-DVS-HSA conjugate, mouse polyclonal sera; type: binding
Description: as §1, §2, §3, §4, §5, §6, §7, §10, §9

MoAb AM19-1-7E12-1 = experiment: Inhibition ELISA with AM19-1-DVS (1) coated ELISA plates, MoAb; type: binding, mouse; details: AM19-1-7E12-1 TCS
Description: as §1, §2, §3, §4, §5, §6, §7, §10, §9

MoAb AM19-1-7E12-2 = experiment: as above; type: binding, mouse; details: AM19-1-7F12-2
Description: as §1, §2, §3, §4, §5, §6, §7, §10, §9

[6] = system: Mouse polyclonal sera (AM19-1-DVS (2) - KLH immunogen); experiment: Inhibition ELISA, AM19-1-DVS (2) HSA coated plate, mouse polyclonal sera; type: binding
Description: as §1, §2, §3, §4, §5, §6, §7, §10, §9

[7] = system: Rabbit polyclonal sera (AM19-1-DVS-KLH (1) immunogen); experiment: Inhibition ELISA, AM19-1-DVS (1) HSA coated plate, rabbit polyclonal sera; type: binding
Description: as §1, §2, §3, §4, §5, §6, §7, §10, §9
The AM19-1-DVS (1) conjugate was also used to immunize rabbits.

Structure (SMILES): C/C=C/C[C@@H](C)[C@@H](O)[C@H]1C(=O)N[C@@H](CCC)C(=O)N(C)CC(=O)N(C)[C@@H](CC(C)C)C(=O)N[C@@H](C(C)C)C(=O)N(C)[C@@H](CC(C)C)C(=O)N[C@@H](C)C(=O)N[C@H](C)C(=O)N(C)[C@@H](CC(C)C)C(=O)N(C)[C@@H](CC(C)C)C(=O)N(C)[C@@H](C(C)C)C(=O)N1C [CSG, cyclosporine G]
- Percent Inhibition (MoAb CSA-2G9; CSA-2G9, Table 24, CSA, CSG and CSA derivative inhibitors): 89.8%
- Percent Inhibition (MoAb CSA-1H6; CSA-1H6, Table 24, CSA, CSG and CSA derivative inhibitors): 88.6%
- Percent Inhibition (MoAb AM1-2E10; AM1-2E10, Table 24, CSA, CSG and CSA derivative inhibitors): 61% and 61.2%
- Percent Inhibition (MoAb AM1-7F5; AM1-7F5, Table 24, CSA, CSG and CSA derivative inhibitors): 28.8%

Structure (SMILES): C=CC[C@@H]1/C=C(\C)C[C@H](C)C[C@H](OC)[C@H]2O[C@@](O)(C(=O)C(=O)N3CCCC[C@H]3C(=O)O[C@H](/C(C)=C/[C@@H]3CC[C@@H](O)[C@H](OC)C3)[C@H](C)[C@@H](O)CC1=O)[C@H](C)C[C@@H]2OC [FK, tacrolimus]
- Percent Inhibition ([1]; Mouse 1): 24.2%
- Percent Inhibition ([1]; Mouse 2): 34.5%
- Percent Inhibition ([2]; Mouse 1): 0%
- Percent Inhibition ([2]; Mouse 2): 0%
- Percent Inhibition of TCS (MoAb CSA-2G9; CSA-2G9 TCS, Table 16, CSA-DVS-HSA conjugate): 10.8%
- Percent Inhibition of TCS (MoAb CSA-1H6; CSA-1H6 TCS, Table 16, CSA-DVS-HSA conjugate): 0%
- Percent Inhibition ([3]; Mouse 5): 0%
- Percent Inhibition ([3]; Mouse 6): 0%
- Percent Inhibition [4]: 31.9%
- Percent Inhibition of TCS (MoAb AM1-2E10; AM1-2E10 TCS, Table 18, CSA-DVS-HSA coated plate): 0%
- Percent Inhibition of TCS (MoAb AM1-7F5; AM1-7F51, TCS, Table 18, CSA-DVS-HSA coated plate): 26.0%
- Percent Inhibition ([5]; Mouse 1): 3.5%
- Percent Inhibition ([5]; Mouse 2): 13.0%
- Percent Inhibition of TCS (MoAb AM19-1-7E12-1): 6.3%
- Percent Inhibition of TCS (MoAb AM19-1-7E12-2): 3.2%
- Percent Inhibition ([6]; Mouse 3): 0%
- Percent Inhibition ([6]; Mouse 4): 0%
- Percent Inhibition [7]: 0%
